Source: the supplement of paper PMC10307832

Tests used:
Test in all cases: relative viability (nuclei count vs DMSO), 5 days (fraction); higher = more cells survive
[1] = compound: CN[C@@H]1C[C@H]2O[C@@](C)([C@@H]1OC)n1c3ccccc3c3c4c(c5c6ccccc6n2c5c31)C(=O)NC4 [Staurosporine] + Cc1nc(NC(=O)N2CCC[C@H]2C(N)=O)sc1-c1ccnc(C(C)(C)C(F)(F)F)c1 [Alpelisib] (partner 2 µM)
In short: (§1)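 Lung cancer cell lines in 1536-well plates were dosed by pin tool the day after seeding, either with one drug alone or with a fixed anchor-drug dose plus five library-drug doses (not always all listed) in √10 steps. After 5 days, cells were fixed and their nuclei stained in one step (final 0.05% Triton X-100, 1% formaldehyde, 1 ug/ml Hoechst), then counted on 4× images. Relative viability is the nuclei count in treated wells divided by that in vehicle wells. Values are medians of duplicate plates.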

[2] = compound: CN[C@@H]1C[C@H]2O[C@@](C)([C@@H]1OC)n1c3ccccc3c3c4c(c5c6ccccc6n2c5c31)C(=O)NC4 [Staurosporine] + O=C(CCCCCCC(=O)Nc1ccccc1)NO [Vorinostat] (partner 1 µM)
In short: as §1

[3] = compound: O=c1[nH]cc(F)c(=O)[nH]1 [5-Fluorouracil] + Cc1cc(Nc2cc(N3CCN(C)CC3)nc(Sc3ccc(NC(=O)C4CC4)cc3)n2)n[nH]1 [Tozasertib] (partner 0.1 µM)
In short: as §1

[4] = compound: O=c1[nH]cc(F)c(=O)[nH]1 [5-Fluorouracil] + Cc1nc(Nc2ncc(C(=O)Nc3c(C)cccc3Cl)s2)cc(N2CCN(CCO)CC2)n1 [Dasatinib] (partner 0.075 µM)
In short: as §1

Cell Line | relative viability ([1]; first compound 0.005 µM) | relative viability ([1]; first compound 0.01581 µM) | relative viability ([1]; first compound 0.05 µM) | relative viability ([1]; first compound 0.1581 µM) | relative viability ([1]; first compound 0.5 µM) | relative viability ([2]; first compound 0.005 µM) | relative viability ([2]; first compound 0.01581 µM) | relative viability ([2]; first compound 0.05 µM) | relative viability ([2]; first compound 0.1581 µM) | relative viability ([2]; first compound 0.5 µM) | relative viability ([3]; first compound 0.02 µM) | relative viability ([3]; first compound 0.2 µM) | relative viability ([3]; first compound 0.6325 µM) | relative viability ([3]; first compound 2 µM) | relative viability ([4]; first compound 0.02 µM) | relative viability ([4]; first compound 0.2 µM) | relative viability ([4]; first compound 0.6325 µM) | relative viability ([4]; first compound 2 µM)
NCI-H647 | 0.51 | 0.218 | 0.117 | 0.0645 | 0.0592 | 0.247 | 0.117 | 0.0686 | 0.0506 | 0.0527 | 0.146 | 0.415 | 0.232 | 0.243 | 0.193 | 0.232 | 0.206 | 0.188
NCI-H1734 | 0.635 | 0.344 | 0.239 | 0.202 | 0.149 | 0.751 | 0.236 |  | 0.117 | 0.107 | 0.249 | 0.261 | 0.241 | 0.237 | 0.41 | 0.521 | 0.407 | 0.291
LCLC-97TM1 | 0.205 | 0.18 | 0.166 | 0.185 | 0.179 | 0.334 | 0.0752 | 0.205 | 0.113 | 0.0631 | 0.223 | 0.271 | 0.181 | 0.199 | 0.79 | 0.978 | 0.837 | 0.745
NCI-H2170 | 0.903 | 0.611 | 0.568 | 0.377 | 0.281 | 0.875 |  | 0.488 | 0.0663 | 0.0848 | 0.796 | 0.671 | 0.436 | 0.32 | 0.566 | 0.53 | 0.393 | 0.28
NCI-H1793 | 0.774 | 0.506 | 0.593 | 0.383 | 0.179 | 0.635 |  | 0.164 | 0.11 | 0.0792 | 0.318 | 0.349 | 0.398 | 0.251 | 0.378 | 0.413 | 0.368 | 0.313
NCI-H322M | 0.74 | 0.723 | 0.725 | 0.446 | 0.328 | 0.581 | 0.424 | 0.451 | 0.405 | 0.398 | 0.511 | 0.495 | 0.391 | 0.323 | 0.279 | 0.243 | 0.242 | 0.234
RERF-LC-KJ | 0.916 | 0.637 | 0.392 | 0.282 | 0.21 | 0.599 | 0.403 | 0.302 | 0.197 | 0.224 | 0.499 | 0.432 | 0.416 | 0.414 | 0.908 | 1.01 | 0.777 | 0.571
EPLC-272H | 0.977 | 0.122 | 0.459 | 0.156 | 0.188 | 0.216 | 0.141 | 0.0826 | 0.0904 | 0.0549 | 0.292 | 0.223 | 0.259 | 0.222 | 0.271 | 0.304 | 0.234 | 0.129
A-427 | 1.03 | 0.889 | 0.374 | 0.25 | 0.143 | 0.572 | 0.333 | 0.43 | 0.161 | 0.152 | 0.181 |  | 0.189 | 0.159 | 0.562 | 0.764 | 0.618 | 0.353
